System: chicken embryonic stem cells
Test: Titration kill curve: morphology of cES cells under puromycin or neomycin selection
Format: cell-based
Design: key to Morphology of cES cells: ES: ES cells are present.; diff: ES cells are differentiated.; gone: no morphologically recognizable cells are present
Procedure: In a preferred embodiment, the concentration of puromycin required for selecting transfected cells is calculated as a titration kill curve. Titration kill curves for chicken embryonic stem cells are established by exposing cells in culture to puromycin concentrations varying from 0.0 to 1.0 μg/ml for 10 days (Table 7) and neomycin concentrations varying from 0.0 to 200 μg/ml (Table 8). The medium is changed every 2 days and fresh puromycin or neomycin is added. […] Puromycin concentrations of 0.3-1.0 μg/ml are used for selection of the transfected cultures. Neomycin concentrations over 40 μg/ml eliminated all cES cells within 7 days (Table 8).

neomycin
dead: Morphology of cES cells (neomycin 40 μg/ml, day 7 under selection) | Morphology of cES cells (neomycin 100 μg/ml, day 3 under selection) | Morphology of cES cells (neomycin 150 μg/ml, day 2 under selection) | Morphology of cES cells (neomycin 150 μg/ml, day 3 under selection) | Morphology of cES cells (neomycin 200 μg/ml, day 2 under selection)
ES/diff: Morphology of cES cells (neomycin 30 μg/ml, day 8 under selection)
ES: Morphology of cES cells (neomycin 10 μg/ml, day 1 under selection) | Morphology of cES cells (neomycin 10 μg/ml, day 2 under selection) | Morphology of cES cells (neomycin 10 μg/ml, day 3 under selection) | Morphology of cES cells (neomycin 10 μg/ml, day 4 under selection) | Morphology of cES cells (neomycin 10 μg/ml, day 5 under selection) | Morphology of cES cells (neomycin 10 μg/ml, day 6 under selection) | Morphology of cES cells (neomycin 10 μg/ml, day 7 under selection) | Morphology of cES cells (neomycin 10 μg/ml, day 8 under selection) | Morphology of cES cells (neomycin 10 μg/ml, day 9 under selection) | Morphology of cES cells (neomycin 10 μg/ml, day 10 under selection) | Morphology of cES cells (neomycin 20 μg/ml, day 1 under selection) | Morphology of cES cells (neomycin 20 μg/ml, day 2 under selection) | Morphology of cES cells (neomycin 20 μg/ml, day 3 under selection) | Morphology of cES cells (neomycin 20 μg/ml, day 4 under selection) | Morphology of cES cells (neomycin 20 μg/ml, day 5 under selection) | Morphology of cES cells (neomycin 20 μg/ml, day 6 under selection) | Morphology of cES cells (neomycin 20 μg/ml, day 7 under selection) | Morphology of cES cells (neomycin 20 μg/ml, day 8 under selection) | Morphology of cES cells (neomycin 20 μg/ml, day 9 under selection) | Morphology of cES cells (neomycin 20 μg/ml, day 10 under selection) | Morphology of cES cells (neomycin 30 μg/ml, day 1 under selection) | Morphology of cES cells (neomycin 30 μg/ml, day 2 under selection) | Morphology of cES cells (neomycin 30 μg/ml, day 3 under selection) | Morphology of cES cells (neomycin 30 μg/ml, day 4 under selection) | Morphology of cES cells (neomycin 30 μg/ml, day 5 under selection) | Morphology of cES cells (neomycin 30 μg/ml, day 6 under selection) | Morphology of cES cells (neomycin 40 μg/ml, day 1 under selection) | Morphology of cES cells (neomycin 40 μg/ml, day 2 under selection) | Morphology of cES cells (neomycin 40 μg/ml, day 3 under selection) | Morphology of cES cells (neomycin 40 μg/ml, day 4 under selection) | Morphology of cES cells (neomycin 50 μg/ml, day 1 under selection) | Morphology of cES cells (neomycin 50 μg/ml, day 2 under selection) | Morphology of cES cells (neomycin 50 μg/ml, day 3 under selection) | Morphology of cES cells (neomycin 60 μg/ml, day 1 under selection) | Morphology of cES cells (neomycin 60 μg/ml, day 2 under selection) | Morphology of cES cells (neomycin 60 μg/ml, day 3 under selection)
ES/Diff: Morphology of cES cells (neomycin 30 μg/ml, day 7 under selection) | Morphology of cES cells (neomycin 40 μg/ml, day 5 under selection) | Morphology of cES cells (neomycin 50 μg/ml, day 4 under selection) | Morphology of cES cells (neomycin 50 μg/ml, day 5 under selection) | Morphology of cES cells (neomycin 100 μg/ml, day 1 under selection)
over 40 μg/ml: Neomycin concentrations that eliminated all cES cells (within 7 days)
Diff: Morphology of cES cells (neomycin 30 μg/ml, day 9 under selection) | Morphology of cES cells (neomycin 100 μg/ml, day 2 under selection)
gone: Morphology of cES cells (neomycin 40 μg/ml, day 8 under selection) | Morphology of cES cells (neomycin 40 μg/ml, day 9 under selection) | Morphology of cES cells (neomycin 40 μg/ml, day 10 under selection) | Morphology of cES cells (neomycin 50 μg/ml, day 8 under selection) | Morphology of cES cells (neomycin 50 μg/ml, day 9 under selection) | Morphology of cES cells (neomycin 50 μg/ml, day 10 under selection) | Morphology of cES cells (neomycin 60 μg/ml, day 4 under selection) | Morphology of cES cells (neomycin 60 μg/ml, day 6 under selection) | Morphology of cES cells (neomycin 60 μg/ml, day 7 under selection) | Morphology of cES cells (neomycin 60 μg/ml, day 8 under selection) | Morphology of cES cells (neomycin 60 μg/ml, day 9 under selection) | Morphology of cES cells (neomycin 60 μg/ml, day 10 under selection) | Morphology of cES cells (neomycin 100 μg/ml, day 4 under selection) | Morphology of cES cells (neomycin 100 μg/ml, day 6 under selection) | Morphology of cES cells (neomycin 100 μg/ml, day 7 under selection) | Morphology of cES cells (neomycin 100 μg/ml, day 8 under selection) | Morphology of cES cells (neomycin 100 μg/ml, day 9 under selection) | Morphology of cES cells (neomycin 100 μg/ml, day 10 under selection) | Morphology of cES cells (neomycin 150 μg/ml, day 4 under selection) | Morphology of cES cells (neomycin 150 μg/ml, day 6 under selection) | Morphology of cES cells (neomycin 150 μg/ml, day 7 under selection) | Morphology of cES cells (neomycin 150 μg/ml, day 8 under selection) | Morphology of cES cells (neomycin 150 μg/ml, day 9 under selection) | Morphology of cES cells (neomycin 150 μg/ml, day 10 under selection) | Morphology of cES cells (neomycin 200 μg/ml, day 3 under selection) | Morphology of cES cells (neomycin 200 μg/ml, day 4 under selection) | Morphology of cES cells (neomycin 200 μg/ml, day 6 under selection) | Morphology of cES cells (neomycin 200 μg/ml, day 7 under selection) | Morphology of cES cells (neomycin 200 μg/ml, day 8 under selection) | Morphology of cES cells (neomycin 200 μg/ml, day 9 under selection) | Morphology of cES cells (neomycin 200 μg/ml, day 10 under selection)
Gone: Morphology of cES cells (neomycin 60 μg/ml, day 5 under selection) | Morphology of cES cells (neomycin 100 μg/ml, day 5 under selection) | Morphology of cES cells (neomycin 150 μg/ml, day 5 under selection) | Morphology of cES cells (neomycin 200 μg/ml, day 5 under selection)

— patent publication US20120156771A1, “FUNCTIONAL DISRUPTION OF AN IMMUNOGLOBULIN GENE IN AN AVIAN EMBRYONIC STEM CELL” (Origen Therapeutics, Inc., priority 2002, published 2012)
